Experimental data taken from US10633675B2, “Microbial engineering for the production of chemical and pharmaceutical products from the isoprenoid pathway” (priority 2009, dated 2020).

Assays:
[1] = test system: taxadiene synthesis by strain 26; assay: Effect of externally-introduced indole on taxadiene production; format: cell-based, E. coli
Description: (§1) FIGS. 15A-15C. Impact of metabolite byproduct Indole accumulation on taxadiene production and growth. […] Strains 26 to 28 and 30 to 32, all with chromosomally integrated upstream pathway expression, were chosen for consistent comparison. The two sets of strains differ only in the expression of the downstream pathway with the second set (30 to 32) having twice the level of expression of the first. In strains 26 to 28 and 30 to 32, upstream expression increased by changing the promoters from Trc, to T5 and T7, respectively. […] The fold improvements are relative to strain 25 and 29, respectively, for the two sets. […] Different concentrations of indole were introduced into cultures of cells cultured in minimal media with 0.5% yeast extract. […] Data are mean+/−SD for three replicates. Strains devoid of the downstream pathway and with different strengths of the upstream pathway (1, 2, 6, 21, 40 and 100) were selected.

[2] = test system: engineered strains of E. coli; assay: Effect of externally-introduced indole on cell growth; format: cell-based
Description: as §1

## c1ccc2[nH]ccc2c1 [indole]
[1]; exogenous indole (FIG. 15B)
  exogenous indole level at which taxadiene synthesis is severely inhibited: > 100 mg/L
[1]; indole concentration increased from 50 mg/L to 100 mg/L, minimal media with 0.5% yeast extract (FIG. 15B)
  effect on taxadiene production: significantly reduced
[2]; further increasing the indole concentration, level of inhibition very strain dependent (FIG. 15C)
  effect on cell growth: inhibited cell growth
[2]; strain 26, the high taxadiene producer (FIG. 15C)
  effect on cell growth of strain 26 compared with strains devoid of the downstream pathway: strongest inhibition
